Tests used:
Assay in all cases: KinomeScan profiling
Format in all cases: binding
[1] = target: T1, BMPR2 (Homo sapiens, UniProt Q13873); details: BMPR2, 1 μM; read-out: % control
T1 construct: purchased KinomeScan®
T1 sequence (Q13873 27-1038): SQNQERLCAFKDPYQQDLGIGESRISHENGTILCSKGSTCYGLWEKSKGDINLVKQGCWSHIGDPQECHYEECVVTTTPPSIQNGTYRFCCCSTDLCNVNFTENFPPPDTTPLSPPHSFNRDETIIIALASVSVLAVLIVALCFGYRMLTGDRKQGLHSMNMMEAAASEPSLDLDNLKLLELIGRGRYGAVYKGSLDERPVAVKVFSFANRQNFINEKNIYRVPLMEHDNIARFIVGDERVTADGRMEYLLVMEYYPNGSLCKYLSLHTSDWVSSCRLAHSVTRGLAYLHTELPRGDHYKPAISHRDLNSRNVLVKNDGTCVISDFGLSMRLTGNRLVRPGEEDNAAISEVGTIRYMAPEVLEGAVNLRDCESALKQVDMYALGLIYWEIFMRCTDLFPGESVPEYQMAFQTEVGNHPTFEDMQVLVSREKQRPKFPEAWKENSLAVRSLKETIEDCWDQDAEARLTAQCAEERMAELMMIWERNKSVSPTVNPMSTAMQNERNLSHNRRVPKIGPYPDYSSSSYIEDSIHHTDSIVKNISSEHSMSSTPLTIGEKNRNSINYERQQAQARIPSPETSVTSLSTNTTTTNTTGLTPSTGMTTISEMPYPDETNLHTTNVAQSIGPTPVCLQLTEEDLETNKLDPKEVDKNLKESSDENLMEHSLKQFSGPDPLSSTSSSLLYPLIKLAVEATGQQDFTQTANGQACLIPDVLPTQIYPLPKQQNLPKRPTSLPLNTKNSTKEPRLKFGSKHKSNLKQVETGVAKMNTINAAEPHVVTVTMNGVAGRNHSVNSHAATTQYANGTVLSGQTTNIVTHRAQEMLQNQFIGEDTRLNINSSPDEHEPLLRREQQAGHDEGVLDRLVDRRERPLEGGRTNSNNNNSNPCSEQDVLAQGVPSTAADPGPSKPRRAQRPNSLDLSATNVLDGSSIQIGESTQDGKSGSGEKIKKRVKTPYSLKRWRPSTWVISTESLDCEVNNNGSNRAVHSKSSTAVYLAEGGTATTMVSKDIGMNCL
In short: (§1)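 Percent-of-control values derive from RLU, calculated as (test − positive)/(negative − positive) × 100, where DMSO defines 100% and a positive control compound defines 0%. Each compound was tested at 1 μM in the 468-kinase panel; sub-35% readings indicate activity.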

[2] = target: FGFR3 (Homo sapiens, UniProt P22607); details: FGFR3, 1 μM; read-out: % control
FGFR3, sequence (P22607 23-806): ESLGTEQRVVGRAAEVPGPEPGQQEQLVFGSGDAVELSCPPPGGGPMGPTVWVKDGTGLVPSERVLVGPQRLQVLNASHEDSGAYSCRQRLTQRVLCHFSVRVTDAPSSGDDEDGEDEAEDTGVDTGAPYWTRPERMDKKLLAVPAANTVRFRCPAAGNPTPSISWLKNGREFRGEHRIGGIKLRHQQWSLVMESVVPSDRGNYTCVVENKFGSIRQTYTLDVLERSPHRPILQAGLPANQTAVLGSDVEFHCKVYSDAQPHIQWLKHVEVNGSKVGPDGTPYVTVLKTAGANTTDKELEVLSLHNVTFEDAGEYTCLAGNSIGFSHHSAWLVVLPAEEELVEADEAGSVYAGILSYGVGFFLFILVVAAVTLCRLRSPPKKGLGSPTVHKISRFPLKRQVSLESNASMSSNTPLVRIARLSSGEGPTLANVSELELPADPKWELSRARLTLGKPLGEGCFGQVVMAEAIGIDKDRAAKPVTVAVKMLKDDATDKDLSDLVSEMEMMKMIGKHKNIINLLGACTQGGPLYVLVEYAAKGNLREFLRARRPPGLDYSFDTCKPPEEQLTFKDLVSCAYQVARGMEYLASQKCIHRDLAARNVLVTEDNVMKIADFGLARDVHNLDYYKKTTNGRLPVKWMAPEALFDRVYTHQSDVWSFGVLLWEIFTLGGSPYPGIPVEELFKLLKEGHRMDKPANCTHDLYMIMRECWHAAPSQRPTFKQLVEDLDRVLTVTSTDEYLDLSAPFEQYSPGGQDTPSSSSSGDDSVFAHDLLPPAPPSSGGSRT
In short: as §1

[3] = target: T2, RIPK5 (Homo sapiens, UniProt Q6XUX3); details: RIPK5, 1 μM; read-out: % control
T2 sequence (Q6XUX3 1-929): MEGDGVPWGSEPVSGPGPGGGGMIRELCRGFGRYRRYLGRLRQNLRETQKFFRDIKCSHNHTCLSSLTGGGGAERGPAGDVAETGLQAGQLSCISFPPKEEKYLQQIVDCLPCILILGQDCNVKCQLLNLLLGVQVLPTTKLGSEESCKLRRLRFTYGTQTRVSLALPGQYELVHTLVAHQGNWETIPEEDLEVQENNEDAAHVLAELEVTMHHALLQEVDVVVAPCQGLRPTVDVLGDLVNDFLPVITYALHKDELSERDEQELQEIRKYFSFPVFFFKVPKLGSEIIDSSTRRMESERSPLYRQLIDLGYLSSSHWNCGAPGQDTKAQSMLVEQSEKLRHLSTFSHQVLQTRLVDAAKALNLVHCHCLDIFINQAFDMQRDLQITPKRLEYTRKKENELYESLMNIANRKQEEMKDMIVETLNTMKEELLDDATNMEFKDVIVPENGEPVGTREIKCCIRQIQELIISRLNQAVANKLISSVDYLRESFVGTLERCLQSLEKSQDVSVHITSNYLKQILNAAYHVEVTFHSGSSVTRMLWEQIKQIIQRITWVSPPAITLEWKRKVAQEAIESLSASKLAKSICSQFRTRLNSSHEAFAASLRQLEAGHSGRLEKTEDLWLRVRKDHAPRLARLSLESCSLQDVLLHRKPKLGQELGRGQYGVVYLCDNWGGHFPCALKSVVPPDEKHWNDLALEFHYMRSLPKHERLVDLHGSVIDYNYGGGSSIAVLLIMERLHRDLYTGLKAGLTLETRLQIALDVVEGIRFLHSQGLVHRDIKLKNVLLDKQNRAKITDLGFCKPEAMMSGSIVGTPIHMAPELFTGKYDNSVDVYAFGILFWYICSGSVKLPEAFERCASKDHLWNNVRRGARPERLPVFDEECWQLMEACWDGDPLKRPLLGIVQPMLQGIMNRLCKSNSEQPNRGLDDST
In short: as §1

[4] = target: T3, AMPK-alpha2 (Homo sapiens, UniProt P54646); details: AMPK-alpha2, 1 μM; read-out: % control
T3 construct: purchased KinomeScan®
T3 sequence (P54646 whole entry): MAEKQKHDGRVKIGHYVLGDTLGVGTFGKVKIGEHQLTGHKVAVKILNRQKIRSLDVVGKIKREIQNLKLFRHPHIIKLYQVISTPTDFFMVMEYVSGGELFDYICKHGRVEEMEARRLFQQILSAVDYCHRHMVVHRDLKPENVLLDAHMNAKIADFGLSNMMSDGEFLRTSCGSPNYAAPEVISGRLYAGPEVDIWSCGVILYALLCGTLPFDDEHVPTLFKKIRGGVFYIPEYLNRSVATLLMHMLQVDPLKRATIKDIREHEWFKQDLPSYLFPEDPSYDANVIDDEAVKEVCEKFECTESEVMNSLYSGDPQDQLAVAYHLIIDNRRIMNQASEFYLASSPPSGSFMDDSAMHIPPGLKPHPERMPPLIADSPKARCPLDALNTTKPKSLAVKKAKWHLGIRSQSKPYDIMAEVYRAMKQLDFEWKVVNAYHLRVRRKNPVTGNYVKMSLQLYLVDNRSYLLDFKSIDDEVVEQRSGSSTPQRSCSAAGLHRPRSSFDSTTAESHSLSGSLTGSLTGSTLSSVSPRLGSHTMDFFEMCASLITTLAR
In short: as §1

O=C(c1ccc(-c2cnc3[nH]cc(Cl)c3c2NC2CCCC2)cc1)N1CCC(N2CCOCC2)CC1 [Compound 101, (4-(3-chloro-4-(cyclopentylamino)-1H-pyrrolo[2,3-b]pyridin-5-yl)phenyl)(4-morpholinopiperidin-1-yl)methanone]
remaining binding at 1 µM [1]: 98% | remaining binding at 1 µM [2]: 67% | remaining binding at 1 µM [3]: 50% | remaining binding at 1 µM [4]: 55%

CNc1c(-c2cnn([C@H]3CCN(C(C)=O)C[C@@H]3F)c2)cnc2[nH]cc(Cl)c12 [Compound 77, 1-((3S,4S)-4-(4-(3-chloro-4-(methylamino)-1H-pyrrolo[2,3-b]pyridin-5-yl)-1H-pyrazol-1-yl)-3-fluoropiperidin-1-yl)ethan-1-one]
remaining binding at 1 µM [1]: 40% | remaining binding at 1 µM [2]: 64% | remaining binding at 1 µM [3]: 31% | remaining binding at 1 µM [4]: 99%

CNc1c(-c2ccc(C(=O)N3CCC(N4CCOCC4)CC3)cc2)cnc2[nH]cc(Cl)c12 [Compound 96, (4-(3-chloro-4-(methylamino)-1H-pyrrolo[2,3-b]pyridin-5-yl)phenyl)(4-morpholinopiperidin-1-yl)methanone]
remaining binding at 1 µM [1]: 53% | remaining binding at 1 µM [2]: 82% | remaining binding at 1 µM [3]: 8.6% | remaining binding at 1 µM [4]: 66%
